For series [1], the system named is Acinetobacter baumannii. Kind of series: Antimicrobial activity against extensively drug-resistant Acinetobacter baumannii AB5075 after 16 hrs by microbroth dilution method. In kind it is functional. Particulars: AB5075, 16 h. (In general: Dilution methods test growth across graded concentrations, often in twofold steps.)
For series [2], the system named is Acinetobacter baumannii. The series can be described thus: Antibacterial activity against Acinetobacter baumannii AB5075 infected in Galleria mellonella assessed as worm survival at 50 mg/kg after 3 days relative to control. The conditions noted are these: AB5075, 72 h. In kind it is functional.
Series [3] is described as follows: Drug degradation in cation adjusted Mueller-Hinton broth after 16 hrs by liquid chromatography. Format: physicochemical.
In series [4] the test system is Acinetobacter baumannii. Kind of series: Bactericidal activity against extensively drug-resistant Acinetobacter baumannii AB5075 assessed as log reduction in bacterial count at 4 to 16 ug/ml measured up to 24 hrs by time kill assay. Format: functional.
Series [5] deals with Acinetobacter baumannii. Kind of series: Antimicrobial activity against extensively drug-resistant Acinetobacter baumannii AB5075 in 0.02% linoleic acid supplemented media after 16 hrs by microbroth dilution method. Format: functional. Particulars: AB5075, 16 h.
Series [6] can be described thus: Half life in cation adjusted Mueller-Hinton broth by liquid chromatography. In kind it is physicochemical.
Series [7] relates to Escherichia coli. The series can be described thus: Antimicrobial activity against Escherichia coli after 16 hrs by microbroth dilution method. In kind it is functional.
A short description of series [8]: Hemolytic activity against sheep RBC up to 512 ug/ml after 1 hr by UV spectrometric analysis. Particulars: erythrocyte. In kind it is ADME, cell-based, Ovis aries.
The subject of series [9] is Staphylococcus aureus. The series can be described thus: Antimicrobial activity against methicillin-resistant Staphylococcus aureus after 16 hrs by microbroth dilution method. In kind it is functional.
For series [10], the system named is Acinetobacter baumannii. Kind of series: Antimicrobial activity against multi drug-resistant Acinetobacter baumannii AB4878 after 16 hrs by microbroth dilution method. In kind it is functional. The conditions noted are these: AB4878, 16 h.
In series [11] the test system is Pseudomonas aeruginosa. Kind of series: Antimicrobial activity against Pseudomonas aeruginosa after 16 hrs by microbroth dilution method. Format: functional.
Series [12] deals with Acinetobacter baumannii. The series can be described thus: Antimicrobial activity against multi drug-resistant Acinetobacter baumannii AB4957 after 16 hrs by microbroth dilution method. The conditions noted are these: AB4957, 16 h. In kind it is functional.
Series [13] deals with Acinetobacter baumannii. The series can be described thus: Antibacterial activity against Acinetobacter baumannii AB5075 infected in Galleria mellonella assessed as protection against bacterial infection by measuring survival of host at 50 mg/kg after 6 days relative to control. In kind it is functional. Particulars: AB5075, 144 h.
The test system of series [14] is Acinetobacter baumannii. Kind of series: Antimicrobial activity against multi drug-resistant Acinetobacter baumannii AB3806 after 16 hrs by microbroth dilution method. Format: functional. The conditions noted are these: AB3806, 16 h.
Series [15] concerns Acinetobacter baumannii. The series can be described thus: Antimicrobial activity against multi drug-resistant Acinetobacter baumannii AB3785 after 16 hrs by microbroth dilution method. In kind it is functional. The conditions noted are these: AB3785, 16 h.
Series [16] concerns Acinetobacter baumannii. Kind of series: Antibacterial activity against Acinetobacter baumannii AB5075 infected in Galleria mellonella assessed as worm survival at 100 mg/kg after 3 days relative to control. The conditions noted are these: AB5075, 72 h. In kind it is functional.
Series [17] deals with Acinetobacter baumannii. The series can be described thus: Antibacterial activity against Acinetobacter baumannii AB5075 infected in Galleria mellonella assessed as protection against bacterial infection by measuring survival of host at 100 mg/kg after 6 days relative to control. The conditions noted are these: AB5075, 144 h. In kind it is functional.
For series [18], the system named is Acinetobacter baumannii. The series can be described thus: Antimicrobial activity against multi drug-resistant Acinetobacter baumannii BAA1605 after 16 hrs by microbroth dilution method. Format: functional. The conditions noted are these: BAA1605, 16 h.
The subject of series [19] is Klebsiella pneumoniae. Kind of series: Antimicrobial activity against Klebsiella pneumoniae after 16 hrs by microbroth dilution method. Format: functional.
Series [20] deals with Acinetobacter baumannii. Kind of series: Antimicrobial activity against multi drug-resistant Acinetobacter baumannii AB3638 after 16 hrs by microbroth dilution method. The conditions noted are these: AB3638, 16 h. In kind it is functional.

Values after ≈ are worked out from the molar mass of the structure shown.

`CCC1(C(C)C)NC(=S)N(c2ccccc2)N1` (stereo unspecified): in [1], the MIC (usually the lowest concentration that inhibits growth of the organism) came to 32 µg/mL (≈ 128 µM).
Turning to `CC1(C)NC(=S)N(c2ccc(Cl)cc2)N1`, the survival at 50 mg/kg in series [2] amounted to 42.5%; in [13], 22%. For the same molecule, in series [3], the Stability result is “Unstable”. Besides, the log reduction in series [4] was greater than 6 log10 CFU/mL. The MIC in series [5] was greater than 128 µg/mL; in [7], no less than 128 µg/mL; in series [9], no less than 128 µg/mL; in series [10] it was 2 µg/mL (≈ 8.27 µM); in [11] it was no less than 128 µg/mL; in series [12], 2 µg/mL (≈ 8.27 µM). Also, the MIC was 1 µg/mL (≈ 4.14 µM) in series [14]; 1 µg/mL (≈ 4.14 µM) in series [15]; 2 µg/mL (≈ 8.27 µM) in series [18]; no less than 128 µg/mL in series [19]; 1 µg/mL (≈ 4.14 µM) in [20]. Moreover, the half-life (in general, the time needed for the level to fall by half in the phase considered) in series [6] is 2.5 h. Besides, the Activity result in [8] is listed as “Non-Toxic”. Moreover, the survival at 100 mg/kg in [16] was found to be 45%; in series [17], 32%.
`CC1NC(=S)N(c2ccccc2)N1` (stereo unspecified) showed an MIC in [1] greater than 128 µg/mL.
In series [1], `CCC1(CC)NC(=S)N(c2ccc(I)cc2)N1` came in with a minimum inhibitory concentration (MIC) of 8 µg/mL (≈ 22.1 µM).
Molecule `CCCC1NC(=S)N(c2ccccc2)N1` (stereo unspecified) came in with an MIC in series [1] of 64 µg/mL (≈ 289 µM).
With `CCC1(CC)NC(=S)N(c2ccccc2)N1`, in series [1], the MIC came out at 8 µg/mL (≈ 34 µM).
In series [1], `CCC1(CC)NC(=S)N(c2ccc(Br)cc2)N1` displayed an MIC of 4 µg/mL (≈ 12.7 µM).
Consider `CCCC1(C)NC(=S)N(c2ccccc2)N1` (stereo unspecified), for which the MIC in series [1] turned out to be 16 µg/mL (≈ 68 µM).
In series [1], `CC(C)C1(C)NC(=S)N(c2ccccc2)N1` (stereo unspecified) displayed an MIC of 8 µg/mL (≈ 34 µM).
In turn, `CCC1(CC)NC(=S)N(c2ccc(C(C)C)cc2)N1` displayed an MIC in [1] greater than 128 µg/mL.
As for `CCCC1(CC)NC(=S)N(c2ccccc2)N1` (stereo unspecified), the lowest concentration to inhibit growth in [1] (MIC) was 32 µg/mL (≈ 128 µM).
`SC1=NC2(CCCCC2)NN1c1ccccc1` displayed an MIC in series [1] of 8 µg/mL (≈ 32.3 µM).
For `CCC1(CC)NC(=S)N(c2ccc(Cl)cc2)N1`, the minimal inhibitory concentration (MIC) in series [1] was 2 µg/mL (≈ 7.41 µM); in series [10], 4 µg/mL (≈ 14.8 µM); in series [12], 4 µg/mL (≈ 14.8 µM); in series [14] it was 4 µg/mL (≈ 14.8 µM); in [15] it was 4 µg/mL (≈ 14.8 µM); in series [18], 4 µg/mL (≈ 14.8 µM). The molecule also came in with an MIC in series [20] of 4 µg/mL (≈ 14.8 µM).
For `CC1(c2ccccc2)NC(=S)N(c2ccccc2)N1` (stereo unspecified), the MIC in [1] is greater than 128 µg/mL.
Same read-out and setting: the value for `CCC1(CC)NC(=S)N(c2cc(F)cc(F)c2)N1` was greater than 128 µg/mL; that for `CCC1(CC)NC(=S)N(c2ccc(F)c(Cl)c2)N1` was 32 µg/mL (≈ 111 µM); that for `CCC1(CC)NC(=S)N(c2ccc(C#N)cc2)N1` was greater than 128 µg/mL.
In [1], `CC1(C)N=C(SCc2ccccc2)N(c2ccc(Cl)cc2)N1` gave an MIC greater than 128 µg/mL.
For the molecule `CCC1(C)NC(=S)N(c2ccccc2)N1` (stereo unspecified), the MIC in series [1] stood at 8 µg/mL (≈ 36.1 µM); in series [10] it was 8 µg/mL (≈ 36.1 µM); in series [12], 8 µg/mL (≈ 36.1 µM); in series [14] it was 4 µg/mL (≈ 18.1 µM); in [15], 4 µg/mL (≈ 18.1 µM); in [18], 8 µg/mL (≈ 36.1 µM). Further, inhibition of growth in series [20] (MIC) required 4 µg/mL (≈ 18.1 µM).
With `CC1(C)NC(=S)N(c2ccccc2)N1`, the MIC in series [1] turned out to be 8 µg/mL (≈ 38.6 µM).
For the molecule `CCCC1(CCC)NC(=S)N(c2ccccc2)N1`, the MIC in series [1] came out at 32 µg/mL (≈ 121 µM).
`CCC1(CC)NC(=S)N(c2cccc(F)c2)N1` came in with an MIC in series [1] of 8 µg/mL (≈ 31.6 µM).
As to `CCCCN1N(c2ccc(Cl)cc2)C(=S)NC1(C)C`, in series [1], the MIC was greater than 128 µg/mL.
In series [1], `CCC1(CC)NC(=S)N(c2ccc([N+](=O)[O-])cc2)N1` yielded an MIC greater than 128 µg/mL.
Same read-out and setting: the value for `CCC1(CC)NC(=S)N(c2ccc(Cl)c(Cl)c2)N1` was greater than 128 µg/mL; that for `S=C1NC(c2ccccc2)NN1c1ccccc1` (stereo unspecified) was 64 µg/mL (≈ 251 µM); that for `CCC1(CC)NC(=S)N(c2ccccc2Cl)N1` was 128 µg/mL (≈ 474 µM).
As to `S=C1NC2(CCCC2)NN1c1ccccc1`, inhibition of growth in series [1] (MIC) required 8 µg/mL (≈ 34.3 µM).
For the molecule `CCC1(CC)NC(=S)N(c2ccccc2F)N1`, in series [1], the MIC was 32 µg/mL (≈ 126 µM).
For the molecule `CCC1NC(=S)N(c2ccccc2)N1` (stereo unspecified), in series [1], the MIC is greater than 128 µg/mL.
The molecule `CCC1(CC)NC(=S)N(c2ccc(F)cc2)N1` returned an MIC in series [1] of 4 µg/mL (≈ 15.8 µM).
Molecule `CN1N(c2ccc(Cl)cc2)C(=S)NC1(C)C` came in with an MIC in series [1] greater than 128 µg/mL.
On the same count and under the same terms, then `CC1(C)NNC(=S)N1c1ccc(Cl)cc1`, with greater than 128 µg/mL; and `CCC1(CC)NC(=S)N(c2cccc(Cl)c2)N1`, with 8 µg/mL (≈ 29.7 µM).
Turning to `CSC1=NC(C)(C)NN1c1ccc(Cl)cc1`, the MIC in series [1] is greater than 128 µg/mL.
Take `CCC1(CC)NC(=S)N(c2ccc(C(F)(F)F)cc2)N1`: the MIC in [1] is greater than 128 µg/mL.

The record behind these values is ChEMBL document CHEMBL3868640, “1,2,4-Triazolidine-3-thiones as Narrow Spectrum Antibiotics against Multidrug-Resistant Acinetobacter baumannii” (ACS Med Chem Lett, 2017).
